≈ marks a conversion by molar mass, not a printed value. Read-outs that look alike come from different tables or passages of the source. Starred links: 1 amine or outer side, 2 acyl side, 3 side chain; linkers in the order of their positions; H or OH if unused. Positions of bridges follow the written chain, without caps; N, C: chain ends. Non-standard residues stand in square brackets, D forms with d. Residues, ends and D or L forms follow the SMILES beside them. *: point of attachment. Yde = (2S)-2-amino-3-[4-[2-(dimethylamino)ethoxy]phenyl]propanoic acid, CN(C)CCOc1ccc(C[C@H](N[*:1])C(=O)[*:2])cc1; Phe(4-OMe) = COc1ccc(C[C@H](N[*:1])C(=O)[*:2])cc1; X6 = O=C(CCC(=O)[*:3])N[C@@H](CS[*:2])C(=O)[*:1]; X7 = O=C(CCC(=O)[*:3])N[C@@H](CC[*:2])C(=O)[*:1]; Trp(7-Me) = Cc1cccc2c(C[C@H](N)C(=O)O)c[nH]c12; αMeLys(Me2) = CN(C)CCCC[C@](C)(N)C(=O)O; 2Nal = N[C@@H](Cc1ccc2ccccc2c1)C(=O)O; d2Nal = N[C@H](Cc1ccc2ccccc2c1)C(=O)O; NMe5Ava = CN(CCCCC(=O)[*:2])[*:1]; Palmitoyl = CCCCCCCCCCCCCCCC(=O)*; 3Pal = N[C@@H](Cc1cccnc1)C(=O)O; αMeL = CC(C)C[C@](C)(N)C(=O)O; Suc = O=C(CCC(=O)[*:2])[*:1]; αMeK = C[C@](N)(CCCCN)C(=O)O; Thp = NC1(C(=O)O)CCOCC1; Me2NCH2CH2 = CN(C)CC*; Aib = CC(C)(N)C(=O)O; Ahx = NCCCCCC(=O)O; Ava = NCCCCC(=O)O; Sar = CNCC(=O)O
T1: IL-23 receptor on the surface of HEK-Blue IL-23 cells (UniProt Q5VWK5 24-629, limits assumed)
T1 sequence (looked up): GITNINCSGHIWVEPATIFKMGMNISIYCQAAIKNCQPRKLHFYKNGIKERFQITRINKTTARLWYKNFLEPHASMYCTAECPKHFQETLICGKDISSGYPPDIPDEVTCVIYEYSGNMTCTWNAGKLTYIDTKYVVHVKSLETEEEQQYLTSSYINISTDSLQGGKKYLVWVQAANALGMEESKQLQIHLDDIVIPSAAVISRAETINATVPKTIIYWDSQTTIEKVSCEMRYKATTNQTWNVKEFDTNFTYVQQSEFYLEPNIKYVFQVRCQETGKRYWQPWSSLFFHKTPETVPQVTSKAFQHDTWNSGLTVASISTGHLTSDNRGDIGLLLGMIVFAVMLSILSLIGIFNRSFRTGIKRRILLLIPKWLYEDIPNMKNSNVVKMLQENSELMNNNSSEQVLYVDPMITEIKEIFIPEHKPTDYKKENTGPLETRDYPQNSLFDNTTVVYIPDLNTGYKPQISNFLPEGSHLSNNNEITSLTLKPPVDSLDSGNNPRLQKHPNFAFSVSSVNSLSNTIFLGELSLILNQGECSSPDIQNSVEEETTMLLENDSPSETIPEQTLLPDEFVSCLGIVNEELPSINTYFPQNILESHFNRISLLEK

B1: Compound of SEQ ID NO: 1 (peptide)
peptide: [Ava]CNTWQC[Phe(4-OMe)][2Nal][Aib]ENN-NH2
modifications: lactam N-11; disulfide 2-7
SMILES: COc1ccc(C[C@@H]2NC(=O)[C@@H]3CSSC[C@H](NC(=O)CCCCNC(=O)CC[C@@H](C(=O)N[C@@H](CC(N)=O)C(=O)N[C@@H](CC(N)=O)C(N)=O)NC(=O)C(C)(C)NC(=O)[C@H](Cc4ccc5ccccc5c4)NC2=O)C(=O)N[C@@H](CC(N)=O)C(=O)N[C@@H]([C@@H](C)O)C(=O)N[C@@H](Cc2c[nH]c4ccccc24)C(=O)N[C@@H](CCC(N)=O)C(=O)N3)cc1
B2: Compound of SEQ ID NO: 10 (peptide)
peptide: [Ava]CNTWQC[Yde][2Nal][αMeL]EN[dL]-NH2
modifications: lactam N-11; disulfide 2-7
SMILES: CC(C)C[C@@H](NC(=O)[C@H](CC(N)=O)NC(=O)[C@@H]1CCC(=O)NCCCCC(=O)N[C@H]2CSSC[C@H](NC(=O)[C@H](CCC(N)=O)NC(=O)[C@H](Cc3c[nH]c4ccccc34)NC(=O)[C@H]([C@@H](C)O)NC(=O)[C@H](CC(N)=O)NC2=O)C(=O)N[C@@H](Cc2ccc(OCCN(C)C)cc2)C(=O)N[C@@H](Cc2ccc3ccccc3c2)C(=O)N[C@@](C)(CC(C)C)C(=O)N1)C(N)=O

Assays:
[1] = target: T2, human interleukin-23 receptor (recombinant human IL-23R-Fc chimera) (Homo sapiens, UniProt Q5VWK5); assay: Human ELISA IL23/IL23R (assay for specific human IL23R antagonists); assay type: binding; conditions: Table 10; read-out: Human ELISA IL23/IL23R IC50
T2 construct: Fc (IgG Fc fusion)
Description: Antagonism of compounds for human interleukin-23 receptor antagonists, was determined by an ELISA assay.
A 384-well plate was coated with 50 μl/well of human IL23 at a final concentration of […] and incubated overnight at 4° C. The wells were washed 3 times with 80 μl wash buffer and blocked with 80 μl blocking buffer for 60 minutes at room temperature and washed again. 20 μl of serially diluted test peptides was added to each well and subsequently 20 μl of recombinant human IL-23R-Fc chimera at final concentration of 0.1 μg/ml. The plate was incubated for 60 minutes at room temperature. After the wells were washed, bound IL23R-Fc was detected with goat anti-hu-IgG1-HRP antibody. Signals were visualized with QuantaBlu Fluorogenic Peroxidase Substrate.

[2] = test system: IL-23 induced STAT3 signaling in HEK-Blue™ IL-23 cells; assay: IL-23 induced STAT3 signaling in HEK-Blue IL-23 cells (SEAP reporter); assay type: cell-based; conditions: human IL23 0.25 ng/ml, read-out: pSTAT3
Description: HEK-Blue™ IL-23 cells (Invivogen) are designed for the detection of bioactive human (hIL-23) and murine IL-23 (mIL-23) by monitoring the activation of the STAT3 pathway. Binding of IL-23 to its receptor on the surface of HEK-Blue™ IL-23 cells triggers a signalling cascade leading to the activation of STAT3 and the subsequent production of secreted embryonic alkaline phosphatase (SEAP). This can be readily assessed using QUANTI-Blue™ Solution, a SEAP detection reagent.
HEK-Blue™ IL-23 cells were cultured as described by Invivogen.
On the first day of assay 10 μL of the HEK-Blue IL23 cell suspension (final concentration: 10,000 cells/well) and 10 μl of serially diluted peptides solutions were dispensed into a 384-well assay plate. After pre-incubation of the reaction mixtures at 37° C./5% CO2/95% humidity for 60 minutes, 10 μl of the human IL23 cytokine (final concentration: 0.25 ng/ml) was added to each well for the STAT3 signalling activation. The plate was incubated overnight at 37° C./5% CO2/95% humidity.
On the second day 20 μl per well of Quanti-Blue detection solution (prepared according to the manufacture instruction) was dispensed into a new 384-well plate and followed by the transfer of 5 μl supernatant of the overnight incubated cell/sample mixtures. After incubation of 45 min at room temperature signals were measured with PHERAstar (BMG) at OD 620-655 nm. Dose response data were fitted with XLfit.

[3] = Chemical stability assessment of peptides (relative purity loss); assay type: physicochemical; conditions: 24 hours at 37° C.
Description: Purity of a peptide batch was determined through UPLC/MS (Methods B-G) prior to chemical stability measurement. The target concentration was 1 mg/ml pure compound. Solutions from solid samples were prepared in the following buffer systems with a concentration of 1 mg/ml compound based on the previously determined % purity: • Solubility buffer system A) 50 mM HCl pH 1.2+Acetonitrile (1:1) • Solubility buffer system B) 50 mM phosphate buffer pH 6.5+Acetonitrile (1:1) • Solubility buffer system C) 50 mM phosphate buffer pH 7.4+Acetonitrile (1:1)
Prepared solutions were stored for 24 hours at 2° C. and 37° C. After this time course, the samples were centrifuged for 15 min at 2500 RCF to create a 1:5 dilution of the supernatant. Then 2 μl of the dilution were analysed with UHPLC-UV.
The chemical stability was rated through the relative loss of purity calculated by the equation:
[(purity after 0 hours at 37° C.)−(purity after 24 hours at 37° C.)]/(purity after 0 hours at 37° C.)]*100%
The purity is calculated as [(peak area peptide)/(total peak area)]*100%.

[4] = Solubility testing of peptides at different pH; assay type: physicochemical; conditions: target concentration 1 mg/ml, 2 hours agitation
Description: Prior to the solubility measurement of a synthesized peptide batch, its purity was determined through UPLC/MS (methods B-G).
For solubility testing the target concentration was 1 mg pure compound/ml. Therefore, solutions from solid samples were prepared in a buffer system at a concentration of 1 mg/mL compound. The solid samples were obtained by drying down aliquots of a dimethyl sulfoxide stock solution using a Thermo Speedvac vacuum centrifuge. The dry down time was 3 hours. • Solubility buffer system A) 50 mM HCl pH 1.2 • Solubility buffer system B) 50 mM phosphate buffer pH 6.5 • Solubility buffer system C) 50 mM phosphate buffer pH 7.4 • Solubility buffer system D) 50 mM phosphate buffer pH 9.0
UPLC-UV (Method A) was performed after 2 hours of gentle agitation from the filtered (0.45 μm filter plates) solutions, which was obtained by 10 mins of centrifugation forced filtration at 1500 RCF (relative centrifugal acceleration).
The solubility was determined by the comparison of the UV peak area of 2 μL-injections of a buffered sample diluted 1:5 with a standard curve of a dimethyl sulfoxide reference sample of the diluted in dimethyl sulfoxide with known concentration. The different extinction coefficients were taken into account for the calculation.

[5] = target: T1, IL-23 receptor on the surface of …; assay: cell-based or functional assay

Molecule	IC50 [1]	IC50 [2]	other results
COc1ccc(C[C@@H]2NC(=O)[C@H]3NC(=O)[C@H](CCC(N)=O)NC(=O)[C@H](Cc4c[nH]c5ccccc45)NC(=O)CCCCNC(=O)[C@H](CCC(=O)O[C@@H]3C)NC(=O)CCCCCNC(=O)C[C@@H](C(=O)N[C@@H](CC(N)=O)C(=O)N[C@@H](CC(N)=O)C(N)=O)NC(=O)C(C)(C)NC(=O)[C@H](Cc3ccc4ccccc4c3)NC2=O)cc1 [compound 39] ([Ahx]E[Ava]WQTY(Me)[2Nal][Aib]DNN-NH2; ester 2-6; lactam N-10)	1.1 nM	26.4 nM	
CCCCCCCCCCCCCCCC(=O)NCCCC[C@]1(C)NC(=O)[C@H](Cc2ccc3ccccc3c2)NC(=O)[C@H](Cc2ccc(OCCN(C)C)cc2)NC(=O)[C@@H]2CSSC[C@H](NC(=O)CCC(=O)NCCCC[C@@H](C(=O)N[C@@H](CC(N)=O)C(=O)N[C@@H](Cc3cccnc3)C(=O)N(C)CC(N)=O)NC1=O)C(=O)NCCCC[C@H](NC(C)=O)C(=O)N[C@@H](Cc1c[nH]c3c(C)cccc13)C(=O)N[C@@H](CCCCNC(C)=O)C(=O)N2 [compound 101] (Ac-K[Trp(7-Me)]K(Ac)CY(Me2NCH2CH2)[2Nal][αMeK](Palmitoyl)KN[3Pal][Sar]-NH2; linker 1-4-8 via X6)	3.47 nM		Chemical stability (relative purity loss) Buffer pH 1.2 ([3]; 50 mM HCl pH 1.2 + acetonitrile (1:1)): 12.0%; Chemical stability (relative purity loss) Buffer pH 6.5 ([3]; 50 mM phosphate buffer pH 6.5 + acetonitrile (1:1)): 10.0%; Chemical stability (relative purity loss) Buffer pH 7.4 ([3]; 50 mM phosphate buffer pH 7.4 + acetonitrile (1:1)): 9.0%; solubility at 2 h ([4]; 50 mM HCl buffer, 50 mM HCl pH 1.2, read-out: Solubility Buffer pH 1.2): ≥ 1430 µg/mL; solubility at 2 h ([4]; 50 mM phosphate buffer pH 6.5, read-out: Solubility Buffer pH 6.5): 750 µg/mL (≈ 354 µM); solubility at 2 h ([4]; 50 mM phosphate buffer pH 7.4, read-out: Solubility Buffer pH 7.4): ≥ 870 µg/mL; solubility at 2 h ([4]; 50 mM phosphate buffer pH 9.0, read-out: Solubility Buffer pH 9.0): 810 µg/mL (≈ 382 µM)
Cc1cccc2c(C[C@@H]3NC(=O)[C@H]([C@@H](C)O)NC(=O)[C@H](CC(N)=O)NC(=O)[C@@H]4CSSC[C@H](NC(=O)[C@H](CC(C)C)NC3=O)C(=O)N[C@@H](Cc3ccc(OCCN(C)C)cc3)C(=O)N[C@@H](Cc3ccc5ccccc5c3)C(=O)N[C@@](C)(CCCCN(C)C)C(=O)N[C@H](C(=O)N[C@@H](CC(N)=O)C(=O)N[C@@H](Cc3cccnc3)C(N)=O)CCCCNC(=O)CCC(=O)N4)c[nH]c12 [compound 150] (CNT[Trp(7-Me)]LCY(Me2NCH2CH2)[2Nal][αMeLys(Me2)]KN[3Pal]-NH2; disulfide 1-6; linker N-10 via Suc)	0.91 nM	0.13 nM	
Cc1cccc2c(C[C@@H]3NC(=O)[C@H]([C@@H](C)O)NC(=O)[C@H](CC(N)=O)NC(=O)[C@@H]4CSSC[C@H](NC(=O)[C@H](CCC(N)=O)NC3=O)C(=O)N[C@@H](Cc3ccc(OCCN(C)C)cc3)C(=O)N[C@@H](Cc3ccc5ccccc5c3)C(=O)N[C@@](C)(CCCCN(C)C)C(=O)N[C@H](C(=O)N[C@@H](CC(N)=O)C(=O)N[C@@H](Cc3cccnc3)C(=O)N(C)CC(N)=O)CCCCNC(=O)CCC(=O)N4)c[nH]c12 [compound 153] (CNT[Trp(7-Me)]QCY(Me2NCH2CH2)[2Nal][αMeLys(Me2)]KN[3Pal][Sar]-NH2; disulfide 1-6; linker N-10 via Suc)	0.45 nM	0.06 nM	
CC(=O)NCCCC[C@@H]1NC(=O)[C@H](Cc2c[nH]c3c(C)cccc23)NC(=O)[C@@H](NC(C)=O)CCCCNC(=O)[C@@H]2CCSC[C@H](NC1=O)C(=O)N[C@@H](Cc1ccc(OCCN(C)C)cc1)C(=O)N[C@H](Cc1ccc3ccccc3c1)C(=O)NC1(CCOCC1)C(=O)N[C@H](C(=O)N[C@@H](CC(N)=O)C(=O)N[C@@H](Cc1cccnc1)C(=O)N(C)CC(N)=O)CCCCNC(=O)CCC(=O)N2 [compound 122] (Ac-K[Trp(7-Me)]K(Ac)CY(Me2NCH2CH2)[d2Nal][Thp]KN[3Pal][Sar]-NH2; linker 1-4-8 via X7)	2.3 nM	0.37 nM	
CC(C)C[C@]1(C)NC(=O)[C@H](Cc2ccc3ccccc3c2)NC(=O)[C@H](Cc2ccc(OCCN(C)C)cc2)NC(=O)[C@@H]2CSSC[C@H](NC(=O)CCCCN(C)C(=O)CC[C@@H](C(=O)N[C@@H](CC(N)=O)C(=O)N[C@@H](CC(N)=O)C(N)=O)NC1=O)C(=O)N[C@@H](CC(N)=O)C(=O)N[C@@H]([C@@H](C)O)C(=O)N[C@@H](Cc1c[nH]c3ccccc13)C(=O)N[C@@H](CCC(N)=O)C(=O)N2 [compound 42] ([NMe5Ava]CNTWQCY(Me2NCH2CH2)[2Nal][αMeL]ENN-NH2; disulfide 2-7; lactam N-11)	0.32 nM	1.42 nM	
B1			pSTAT3 (nM) [5]: 18.5 nM
B2			pSTAT3 (nM) [5]: 25.8 nM
